From patent US9115121B2, “1,3,5-triazine-2-amine derivatives, preparation thereof and diagnostic and therapeutic use thereof” (SANOFI, priority 2011, dated 2015)

These compounds were tested against human CB2 receptors (Homo sapiens (Human), UniProt P34972) (assay: Affinity binding test on human CB2 receptors (tritiated ligand, membranes of recombinant cell lines)). Conditions: concentration causing 50% inhibition of specific binding of the tritiated ligand, read-out: IC50 (nM) hCB2.
Method: Affinity binding tests were performed according to the experimental conditions described by M. Rinaldi-Carmona in J. Pharmacol. Exp. Therap. 1998, 287, 644-650, with membranes derived either from rodent tissues or from recombinant cell lines in which the human CB2 receptors were expressed (Munro et al., Nature 1993, 365, 61-65). The affinity of the compounds is expressed in the form of the IC50 (concentration causing 50% inhibition of specific binding of the tritiated ligand used in vitro).

human CB2 receptors, sequence (P34972 whole entry): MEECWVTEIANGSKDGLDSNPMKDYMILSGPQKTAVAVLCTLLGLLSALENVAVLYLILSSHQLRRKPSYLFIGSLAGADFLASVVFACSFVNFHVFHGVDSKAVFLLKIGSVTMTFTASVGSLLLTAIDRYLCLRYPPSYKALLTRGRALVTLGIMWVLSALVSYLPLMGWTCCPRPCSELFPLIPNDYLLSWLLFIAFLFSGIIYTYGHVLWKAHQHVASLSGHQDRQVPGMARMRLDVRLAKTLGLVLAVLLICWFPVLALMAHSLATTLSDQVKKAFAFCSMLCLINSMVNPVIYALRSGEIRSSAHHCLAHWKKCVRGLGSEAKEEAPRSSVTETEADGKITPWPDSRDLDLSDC

Q: With `COc1nc(NCCc2ccc(F)cc2)nc(-c2cccc(OC(C)C)c2)n1` [Compound 2] as the compound, how does the IC50 read?
A: 39 nM

Q: How did the IC50 turn out when `COc1nc(NCCc2ccc(F)cc2)nc(-c2ccc(OC)c(OC)c2)n1` [Compound 3] was run?
A: 11 nM

Q: With `COc1nc(NCCc2ccc(F)cc2)nc(-c2ccc(SC)cc2)n1` [Compound 5] as the compound, how does the IC50 read?
A: 14 nM

Q: Which IC50 does the source give for `COC(=O)CCc1cccc(-c2nc(NCCc3ccc(F)cc3)nc(OC)n2)c1` [Compound 6] here?
A: 12 nM

Q: Which IC50 does the source give for `COc1nc(NCCc2ccc(F)cc2)nc(-c2ccc3c(c2)OCO3)n1` [Compound 7] here?
A: 9 nM

Q: `COc1nc(NCCc2ccc(F)cc2)nc(-c2ccc3c(c2)OCCO3)n1` [Compound 8] was tested. Which IC50 did it give?
A: 14 nM

Q: How did the IC50 turn out when `COc1nc(NCCc2ccc(F)cc2)nc(-c2cccc(C(C)=O)c2F)n1` [Compound 10] was run?
A: 10 nM

Q: How did the IC50 turn out when `COc1nc(NCCc2ccc(F)cc2)nc(-c2cccc(S(=O)(=O)NC3CC3)c2)n1` [Compound 11] was run?
A: 2.7 nM

Q: With `COc1nc(NCCc2ccc(F)cc2)nc(-c2ccc(Cl)c(C(C)(C)O)c2)n1` [Compound 13] as the compound, how does the IC50 read?
A: 0.4 nM

Q: With `COc1nc(NCCc2ccc(F)cc2)nc(-c2ccc(F)c(C(C)(C)O)c2)n1` [Compound 14] as the compound, how does the IC50 read?
A: 8 nM

Q: With `COc1nc(NCCc2ccc(F)cc2)nc(-c2ccc(C(C)(C)O)c(OC)c2)n1` [Compound 15] as the compound, how does the IC50 read?
A: 17 nM

Q: Which IC50 does the source give for `COc1nc(NCCc2ccc(F)cc2)nc(-c2ccc(N(C)C)nc2)n1` [Compound 16] here?
A: 35 nM

Q: For `COc1nc(NCCc2ccc(F)cc2)nc(-c2cc3cc(Br)ccc3[nH]2)n1` [Compound 17], which IC50 is on record?
A: 17 nM

Q: With `COc1nc(NCCc2ccc(F)cc2)nc(-c2cc3cc(Cl)ccc3[nH]2)n1` [Compound 19] as the compound, how does the IC50 read?
A: 14 nM

Q: For `COc1nc(NCCc2ccc(F)cc2)nc(-c2cc3ccc(F)cc3[nH]2)n1` [Compound 21], which IC50 is on record?
A: 48 nM

Q: For `COc1nc(NCCc2ccc(F)cc2)nc(-c2cc3cc(C)ccc3[nH]2)n1` [Compound 22], which IC50 is on record?
A: 24 nM

Q: How did the IC50 turn out when `COc1nc(NCCc2ccc(F)cc2)nc(-c2cc3c(OC)cccc3[nH]2)n1` [Compound 23] was run?
A: 33 nM

Q: With `COc1ccc2[nH]c(-c3nc(NCCc4ccc(F)cc4)nc(OC)n3)cc2c1` [Compound 24] as the compound, how does the IC50 read?
A: 21 nM

Q: For `COc1nc(NCCc2ccc(F)cc2)nc(-c2cc3cc(C#N)ccc3[nH]2)n1` [Compound 25], which IC50 is on record?
A: 27 nM

Q: Which IC50 does the source give for `COc1nc(NCCc2ccc(F)cc2)nc(-c2cc3ccc(SC)cc3[nH]2)n1` [Compound 26] here?
A: 37 nM

Q: Which IC50 does the source give for `COc1nc(NCCc2ccc(F)cc2)nc(-c2cccc3[nH]ccc23)n1` [Compound 27] here?
A: 27 nM

Q: How did the IC50 turn out when `COc1nc(NCCc2ccc(F)cc2)nc(-c2ccc3[nH]ccc3c2)n1` [Compound 28] was run?
A: 34 nM

Q: For `COc1nc(NCCc2ccc(F)cc2)nc(-c2ccc3cc[nH]c3c2)n1` [Compound 29], which IC50 is on record?
A: 14 nM

Q: How did the IC50 turn out when `COc1nc(NCCc2ccc(F)cc2)nc(-c2cc3ccccc3o2)n1` [Compound 30] was run?
A: 5 nM

Q: For `COc1nc(NCCc2ccc(F)cc2)nc(-c2ccc3nonc3c2)n1` [Compound 31], which IC50 is on record?
A: 42 nM

Q: Which IC50 does the source give for `COc1nc(NCCc2ccc(F)cc2)nc(-c2cnc3ccccc3c2)n1` [Compound 32] here?
A: 34 nM

Q: For `COc1nc(NCCc2ccc(F)cc2)nc(-c2ccnc3ccccc23)n1` [Compound 33], which IC50 is on record?
A: 11 nM

Q: `COc1nc(NCCc2ccc(F)cc2)nc(-c2cccc3ncccc23)n1` [Compound 34] was tested. Which IC50 did it give?
A: 47 nM

Q: `COc1nc(NCCc2ccc(F)cc2)nc(-c2ccc3ncccc3c2)n1` [Compound 35] was tested. Which IC50 did it give?
A: 32 nM

Q: Which IC50 does the source give for `COc1nc(NCCc2ccc(F)cc2)nc(-c2cccc3cccnc23)n1` [Compound 36] here?
A: 17 nM

Q: For `COc1nc(NCCc2ccc(F)cc2)nc(-c2ccc(F)c3cccnc23)n1` [Compound 37], which IC50 is on record?
A: 1 nM

Q: For `COc1nc(NCCc2ccc(F)cc2)nc(-c2ccc(C)c3ncccc23)n1` [Compound 38], which IC50 is on record?
A: 38 nM

Q: With `COc1nc(NCCc2ccc(F)cc2)nc(-c2ccc(OC)c3nc(C)ccc23)n1` [Compound 39] as the compound, how does the IC50 read?
A: 38 nM

Q: For `COc1nc(NCCc2ccc(F)cc2)nc(-c2cncc3ccccc23)n1` [Compound 40], which IC50 is on record?
A: 21 nM

Q: With `COc1nc(NCCc2ccc(F)cc2)nc(-c2cccc3cnccc23)n1` [Compound 41] as the compound, how does the IC50 read?
A: 20 nM

Q: With `COc1nc(NCCc2ccc(OC(F)F)cc2)nc(-c2cc3c(Cl)cccc3[nH]2)n1` [Compound 42] as the compound, how does the IC50 read?
A: 24 nM

Q: With `COc1nc(NCCc2ccc(OC(F)F)cc2)nc(-c2cc3cc(F)ccc3[nH]2)n1` [Compound 43] as the compound, how does the IC50 read?
A: 45 nM

Q: `COc1nc(NCCc2ccc(OC(F)F)cc2)nc(-c2cccc(C(C)(C)O)c2)n1` [Compound 44] was tested. Which IC50 did it give?
A: 18 nM

Q: With `COc1nc(NCCc2ccc(OC(F)F)cc2)nc(-c2ccc(F)c(C(C)(C)O)c2)n1` [Compound 45] as the compound, how does the IC50 read?
A: 30 nM

Q: `COc1nc(NCCc2ccc(F)cc2)nc(-c2cc3ccccc3s2)n1` [Compound 47] was tested. Which IC50 did it give?
A: 4 nM

Q: How did the IC50 turn out when `COc1ccc2oc(-c3nc(NCCc4ccc(F)cc4)nc(OC)n3)cc2c1` [Compound 48] was run?
A: 12 nM

Q: Which IC50 does the source give for `COc1nc(NCCc2ccc(OC(F)F)cc2)nc(-c2cccc(OC)c2C(C)(C)O)n1` [Compound 49] here?
A: 4 nM

Q: Which IC50 does the source give for `COc1nc(NCCc2ccc(OC(F)(F)F)cc2)nc(-c2ccc(Cl)c(C(C)(C)O)c2)n1` [Compound 50] here?
A: 12 nM

Q: Which IC50 does the source give for `COc1nc(NCCc2ccc(F)cc2)nc(-c2cc3cc(Cl)ccc3o2)n1` [Compound 51] here?
A: 23 nM

Q: Which IC50 does the source give for `COc1nc(NCCc2ccc(OC(F)(F)F)cc2)nc(-c2ccc(OC)c(C(C)(C)O)c2)n1` [Compound 54] here?
A: 9 nM

Q: For `COc1nc(NCCc2ccc(OC(F)F)cc2)nc(-c2ccc(C)c(S(=O)(=O)NC3CC3)c2)n1` [Compound 55], which IC50 is on record?
A: 44 nM

Q: How did the IC50 turn out when `CCC(O)(CC)c1cccc(-c2nc(NCCc3ccc(F)cc3)nc(OC)n2)c1` [Compound 57] was run?
A: 21 nM

Q: Which IC50 does the source give for `COc1nc(NCCc2ccc(F)cc2)nc(-c2ccc(CO)c(S(=O)(=O)NC3CC3)c2)n1` [Compound 59] here?
A: 25 nM

Q: How did the IC50 turn out when `COc1nc(NCCc2ccc(OC(F)F)cc2)nc(-c2cccc(S(=O)(=O)NC3CC3)c2)n1` [Compound 60] was run?
A: 23 nM

Q: Which IC50 does the source give for `COc1nc(NCCc2ccc(F)cc2)nc(-c2ccc(Cl)c(S(=O)(=O)NC3CC3)c2)n1` [Compound 62] here?
A: 4 nM

Q: Which IC50 does the source give for `COc1nc(NCCc2ccc(F)cc2)nc(-c2ccc(OC)c(C#N)c2)n1` [Compound 64] here?
A: 19 nM

Q: With `COc1nc(NCCc2ccc(F)cc2)nc(-c2ccc(Cl)c(OCCCNS(C)(=O)=O)c2)n1` [Compound 66] as the compound, how does the IC50 read?
A: 18 nM

Q: `COc1nc(NCCc2ccc(OC(F)F)cc2)nc(-c2ccc(Cl)c(OCC(N)=O)c2)n1` [Compound 68] was tested. Which IC50 did it give?
A: 11 nM

Q: `COc1nc(NCCc2ccc(OCF)cc2)nc(-c2ccc(OC)c(C(C)(C)O)c2)n1` [Compound 70] was tested. Which IC50 did it give?
A: 9 nM

Same assay, conditions: reported in text, read-out: IC50 on hCB2

Q: How did the IC50 turn out when `CC(C)(O)c1cc(-c2nc(NCCc3ccc(F)cc3)nc(OCF)n2)ccc1Cl` [Compound 71, 2-{2-Chloro-5-[4-(fluoromethoxy)-6-{[2-(4-fluorophenyl)ethyl]amino}-1,3,5-triazin-2-yl]phenyl}propan-2-ol] was run?
A: 1.2 nM

Q: Which IC50 does the source give for `COc1ccc(-c2nc(NCCc3ccc(F)cc3)nc(OCF)n2)cc1C(C)(C)O` [Compound 72, 2-{5-[4-(Fluoromethoxy)-6-{[2-(4-fluorophenyl)ethyl]amino}-1,3,5-triazin-2-yl]-2-methoxyphenyl}propan-2-ol] here?
A: 1.2 nM
